“And” between values parts separate entries of the source, which are not always exact repeats. Equal entries are not always repeated. Where two headings read alike, the source gives them in different places.
What was measured:
[1] = system: 80S14 (p21-deficient) cells; experiment: Cytotoxicity assay using isogenic cell lines: IC50 in 80S14 (p21-deficient) cells, SRB; format: cell-based, human; conditions: SRB
Procedure, shortened: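 80S14 (p21-deficient) cells seeded at 12,000 cells/well overnight, then exposed 5 days at 37 °C to serial dilutions (5 pM–50 μM or 170 pg/ml–10 μg/ml). TCA-fixed, sulforhodamine B-stained, absorbance at 560 nm; IC50 taken from cytotoxicity curves versus untreated controls.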

LoVo Colon cell line = experiment: Cytotoxicity assay using LoVo colon cell line, SRB; format: cell-based; conditions: 4 days incubation, SRB, read-out: Inhibition of LoVo
Procedure, shortened: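 LoVo cells (4000/well, RPMI 1640 with 10% FBS, 37 °C, 7% CO2) seeded overnight, then exposed 4 days to serial dilutions spanning 5 pM-20 μM or 170 pg/ml-10 μg/ml. Survival by SRB staining; IC50 from curves relative to untreated controls.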

[2] = Homo sapiens, 120 h, 80S14 (p21-deficient) cells, 5 days, class symbols, read-out: IC50 for 80S14
[3] = Homo sapiens, 96 h, Cellular activity in LoVo cell
[4] = 80S14 (p21-deficient) cells, 5 days, class symbols, read-out: IC50 for 80S14
[5] = 80S14 p21-deficient cells, 5 days incubation, read-out: IC50 for 80SI4

Row | Compound | melting point | IC50 [1, 2] | IC50 (LoVo Colon cell line; [3]) | also measured
1 | CCCCNC(=O)Nc1cccc(-c2ccnc3c(C(=O)c4cccs4)cnn23)c1 [Example 8, N-butyl-N′-{3-[3-(thien-2-ylcarbonyl)pyrazolo[1,5-a]pyrimidin-7-yl]phenyl}urea] | 158 to 160 °C |  |  | IC50 ([1]; Homo sapiens, 120 h, 80S14 p21-deficient cells, 5 days incubation, read-out: IC50 for 80SI4): < 1 µM; IC50 (LoVo Colon cell line; Homo sapiens, 96 h, LoVo colon cells): < 0.1 µM
2 | O=C(c1cccs1)c1cnn2c(-c3cccs3)ccnc12 [Example 224, 2-Thienyl[7-(2-thienyl)pyrazolo[1,5-a]-pyrimidin-3-yl}-methanone] | 193 to 195 °C | 1 to 10 µM |  | 
3 | O=C(c1ccco1)c1cnn2c(-c3cccc(NC(=O)C4CC4)c3)ccnc12 [Example 235, N-[3-[3-(2-Furanylcarbonyl)-pyrazolo[1,5-a]pyrimidin-7-yl]phenyl}-cyclopropanecarboxamide] | 227 to 230 °C | < 1 µM |  | 
4 | O=C(c1cccs1)c1cnn2c(-c3cccc(-n4ccnc4)c3)ccnc12 [Example 244, [7-[3-(1H-imidazol-1-yl)phenyl]pyrazolo-[1,5-a]pyrimidin-3-yl]-2-thienyl-methanone] | 242 to 244 °C | 1 to 10 µM |  | 
5 | Cc1cn(-c2cccc(-c3ccnc4c(C(=O)c5cccs5)cnn34)c2)cn1 [Example 247, [7-[3-(4-Methyl-1H-imidazol-1-yl)phenyl]-pyrazolo[1,5-a]pyrimidin-3-yl]-2-thienyl-methanone] | 232 to 234 °C | 1 to 10 µM | 0.1 to 1 µM | 
6 | O=C(c1cccs1)c1cnn2c(-c3cccc(NC(=O)C4CC4)c3)ccnc12 [Example 249, N-[3-[3-(2-Thienylcarbonyl)pyrazolo[1,5-a]pyrimidin-7-yl]phenyl}-cyclopropanecarboxamide] | 192 to 194 °C | < 1 µM |  | 
7 | Nc1cccc(-c2ccnc3c(C(=O)c4cccs4)cnn23)c1 [Example 262, [7-(3-Aminophenyl)pyrazolo[1,5-a]pyrimidin-3-yl]-2-thienyl-methanone] | 183 to 184 °C and 183 to 185 °C | 10 to 50 µM |  | 
8 | O=C(c1ccco1)c1cnn2c(-c3cccc(-n4cccc4)c3)ccnc12 [Example 269, 2-Furanyl[7-[3-(1H-pyrrol-1-yl)phenyl]pyrazolo[1,5-a]pyrimidin-3-yl]-methanone] | 204 to 206 °C | 1 to 10 µM |  | 
9 | O=C(Nc1cccc(-c2ccnc3c(C(=O)c4cccs4)cnn23)c1)c1ccncc1 [Example 291, N-{3-[3-(2-Thienylcarbonyl)pyrazolo[1,5-a]pyrimidin-7-yl]phenyl}isonicotinamide] | 212 to 215 °C | < 1 µM | < 0.1 µM | 
10 | CC(C)NC(=N)Nc1cccc(-c2ccnc3c(C(=O)c4cccs4)cnn23)c1 [Example 411, N-Isopropyl-N′-{3-[3-(thien-2-ylcarbonyl)pyrazolo[1,5-a]pyrimidin-7-yl]phenyl}guanidine] | > 200 °C | 10 to 50 µM |  | 
11 | CC(C)NC(=NC#N)Nc1cccc(-c2ccnc3c(C(=O)c4cccs4)cnn23)c1 [Example 414, N″-Cyano-N-isopropyl-N′-{3-[3-(thien-2-ylcarbonyl)pyrazolo[1,5-a]pyrimidin-7-yl]phenyl}guanidine] | 240 to 241 °C | < 1 µM |  | 
12 | CC(C)Cn1nnc(-c2cccc(-c3ccnc4c(C(=O)c5cccs5)cnn34)c2)n1 [Example 504, {7-[3-(2-Isobutyl-2H-tetraazol-5-yl)phenyl]pyrazolo[1,5-a]pyrimidin-3-yl}(thien-2-yl)methanone] |  | < 1 µM | 0.1 to 1 µM | 
13 | O=C(c1cccs1)c1cnn2c(-c3cccc(-c4nnn(CC5CCC5)n4)c3)ccnc12 [Example 505, (7-{3-[2-(Cyclobutylmethyl)-2H-tetraazol-5-yl]phenyl}pyrazolo[1,5-a]pyrimidin-3-yl)(thien-2-yl)methanone] |  | < 1 µM | < 0.1 µM | 
14 | CCCCn1nnc(-c2cccc(-c3ccnc4c(C(=O)c5cccs5)cnn34)c2)n1 [Example 506, {7-[3-(2-Butyl-2H-tetraazol-5-yl)phenyl]pyrazolo[1,5-a]pyrimidin-3-yl) (thien-2-yl)methanone] |  | < 1 µM | < 0.1 µM | 
15 | O=C(c1cccs1)c1cnn2c(-c3cccc(-c4nnn(CCN5CCOCC5)n4)c3)ccnc12 [Example 507, (7-{3-[2-(2-Morpholin-4-ylethyl)-2H-tetraazol-5-yl]phenyl}pyrazolo[1,5-a]pyrimidin-3-yl)(thien-2-yl)methanone] |  | 1 to 10 µM | 0.1 to 1 µM | 
16 | O=C(c1cccs1)c1cnn2c(-c3cccc(-c4nnnn4CC4CCC4)c3)ccnc12 [Example 508, (7-{3-[1-(Cyclobutylmethyl)-1H-tetraazol-5-yl]phenyl}pyrazolo[1,5-a]pyrimidin-3-yl)(thien-2-yl)methanone] |  | 10 to 50 µM | 1 to 20 µM | 

Row | Compound | melting point | IC50 [1, 2] | IC50 (LoVo Colon cell line; [3]) | also measured
17 | O=C(c1cccs1)c1cnn2c(-c3cccc(-c4nnn(Cc5ccccn5)n4)c3)ccnc12 [Example 509, (7-{3-[2-(Pyridin-2-ylmethyl)-2H-tetraazol-5-yl]phenyl}pyrazolo[1,5-a]pyrimidin-3-yl)(thien-2-yl)methanone] |  | < 1 µM | 0.1 to 1 µM | 
18 | O=C(c1cccs1)c1cnn2c(-c3cccc(-c4nnn(Cc5ccncc5)n4)c3)ccnc12 [Example 510, (7-{3-[2-(Pyridin-4-ylmethyl)-2H-tetraazol-5-yl]phenyl}pyrazolo[1,5-a]pyrimidin-3-yl)(thien-2-yl)methanone] |  | < 1 µM | < 0.1 µM | 
19 | O=C(c1cccs1)c1cnn2c(-c3cccc(-c4nnn(CCN5CCCC5)n4)c3)ccnc12 [Example 511, (7-{3-[2-(2-Pyrrolidin-1-ylethyl)-2H-tetraazol-5-yl]phenyl}pyrazolo[1,5-a]pyrimidin-3-yl)(thien-2-yl)methanone] |  | < 1 µM | 0.1 to 1 µM | 
20 | O=C(c1cccs1)c1cnn2c(-c3cccc(-c4nnn(CCN5CCCCC5)n4)c3)ccnc12 [Example 512, (7-{3-[2-(2-Piperidin-1-ylethyl)-2H-tetraazol-5-yl]phenyl}pyrazolo[1,5-a]pyrimidin-3-yl)(thien-2-yl)methanone] |  | 1 to 10 µM | 0.1 to 1 µM | 
21 | O=C(c1cccs1)c1cnn2c(-c3cccc(-c4nnn(CCO)n4)c3)ccnc12 [Example 513, (7-{3-[2-(2-Hydroxyethyl)-2H-tetraazol-5-yl]phenyl}pyrazolo[1,5-a]pyrimidin-3-yl)(thien-2-yl)methanone] |  | 1 to 10 µM | 0.1 to 1 µM | 
22 | O=C(c1cccs1)c1cnn2c(-c3cccc(-c4ccn(CC5CCC5)n4)c3)ccnc12 [Example 515, (7-{3-[1-(Cyclobutylmethyl)-1H-pyrazol-3-yl]phenyl}pyrazolo[1,5-a]pyrimidin-3-yl)(thien-2-yl)methanone] |  | < 1 µM | < 0.1 µM | 
23 | O=C(c1cccs1)c1cnn2c(-c3cccc(-c4ccn(Cc5ccccn5)n4)c3)ccnc12 [Example 517, (7-{3-[1-(Pyridin-2-ylmethyl)-1H-pyrazol-3-yl]phenyl}pyrazolo[1,5-a]pyrimidin-3-yl)(thien-2-yl)methanone] |  | < 1 µM | 0.1 to 1 µM | 
24 | O=C(c1cccs1)c1cnn2c(-c3cccc(-c4ccn(CCN5CCCC5)n4)c3)ccnc12 [Example 520, (7-{3-[1-(2-Pyrrolidin-1-ylethyl)-1H-pyrazol-3-yl]phenyl}pyrazolo[1,5-a]pyrimidin-3-yl)(thien-2-yl)methanone] |  | 1 to 10 µM | 0.1 to 1 µM | 
25 | (7-{3-[1-(Pyridin-2-ylmethyl)-1H-pyrazol-3-yl]phenyl}pyrazolo[1,5-a]pyrimidin-3-yl)(thien-2-yl)methanone [Example 516] |  |  |  | IC50 [1, 4]: < 1 µM; IC50 (LoVo Colon cell line; Cellular activity in LoVo cell): < 0.1 µM
26 | N-{3-[3-(thien-2-ylcarbonyl)pyrazolo[1,5-a]pyrimidin-7-ylphenyl}morpholne-4-carboxamide [Example 157] |  |  |  | IC50 [1, 5]: 1 to 10 µM; IC50 (LoVo Colon cell line; LoVo colon cells): 0.1 to 1 µM
27 | N-{3-[6-methyl-3-(thien-2-ylcarbonyl)pyrazolo[1,5-a]pyrimidin-7-yl]phenyl}cycopropanecarboxamide [Example 217] |  |  |  | IC50 [1, 5]: 10 to 50 µM; IC50 (LoVo Colon cell line; LoVo colon cells): < 0.1 µM
28 | N-{4-Chloro-3-[3-(thien-2-ylcarbonyl)pyrazolo[1,5-a]yrimidin-7-yl]phenyl}-N′-isopropylthiourea [Example 340] |  |  |  | IC50 [1, 4]: 1 to 10 µM; IC50 (LoVo Colon cell line; Cellular activity in LoVo cell): 0.1 to 1 µM
29 | Thienylcarbonyl)pyrazolo[1,5-a]pyrimidin-7-yl]phenyl}cyclobutanecarboxamide [Example 275] |  |  |  | IC50 [1, 4]: < 1 µM; IC50 (LoVo Colon cell line; Cellular activity in LoVo cell): < 0.1 µM
30 | [7-[3-(2-Methyl-1H-imidazol-1-yl)phenyl]-pyrazolo[1,5-a]pyrimidin-3-vy]-2-thienyl-methanone [Example 245] |  |  |  | IC50 [1, 4]: 10 to 50 µM; IC50 (LoVo Colon cell line; Cellular activity in LoVo cell): 1 to 20 µM
31 | tert-Butyl 4-[2-oxo-2-({3-[3-(thien-2-ylcarbonyl)pyrazolo[1.5-a]pyrimidin-7-yl]phenyl}amino)ethyl]piperidine-1-carboxylate [Example 392] |  |  |  | IC50 [1, 4]: < 1 µM; IC50 (LoVo Colon cell line; Cellular activity in LoVo cell): < 0.1 µM
32 | {7-[3-(1-Ethyl-1H-pyrazol-3-yl)phenyl]pyrazolo[1,5-a]pyrimidin-3-yl (thien-2-yl)methanone [Example 518] |  |  |  | IC50 [1, 4]: < 1 µM; IC50 (LoVo Colon cell line; Cellular activity in LoVo cell): < 0.1 µM
